Data: PubChem BioAssay (NCI)
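Interpolation was linear, between the two tested concentrations surrounding the appropriate level; five concentrations were tested over 48 hours in 96-well plates. Abbreviation: GI50, concentration required for 50% inhibition of growth. TGI is the concentration that stops growth completely.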

Key:
Assay in all cases: inhibition of tumour cell growth, NCI panel, 48 h; in the data active means GI50 below about 0.43 µM; inactive means the rest
HCC-2998 colon = tested on: HCC-2998 colon
MDA-MB-231 breast = tested on: MDA-MB-231 breast
MDA-MB-435 = tested on: MDA-MB-435
U251 CNS = tested on: U251 CNS
IGROV1 ovarian = tested on: IGROV1 ovarian
786-0 renal = tested on: 786-0 renal
SNB-75 CNS = tested on: SNB-75 CNS
RPMI-8226 leukemia = tested on: RPMI-8226 leukemia
HCT-15 colon = tested on: HCT-15 colon
COLO 205 colon = tested on: COLO 205 colon
UO-31 renal = tested on: UO-31 renal
ACHN renal = tested on: ACHN renal
SNB-19 CNS = tested on: SNB-19 CNS
NCI-H226 lung = tested on: NCI-H226 lung
OVCAR-3 ovarian = tested on: OVCAR-3 ovarian
SK-OV-3 ovarian = tested on: SK-OV-3 ovarian
HL-60(TB) leukemia = tested on: HL-60(TB) leukemia
DU-145 prostate = tested on: DU-145 prostate
OVCAR-4 ovarian = tested on: OVCAR-4 ovarian
BT-549 breast = tested on: BT-549 breast
NCI-H460 lung = tested on: NCI-H460 lung
EKVX NSCLC = tested on: EKVX NSCLC
HT29 colon = tested on: HT29 colon
MALME-3M melanoma = tested on: MALME-3M melanoma
SF-295 CNS = tested on: SF-295 CNS
SN12C renal = tested on: SN12C renal
KM12 colon = tested on: KM12 colon
NCI-H23 lung = tested on: NCI-H23 lung
HS 578T breast = tested on: HS 578T breast
OVCAR-8 ovarian = tested on: OVCAR-8 ovarian
NCI/ADR-RES ovarian = tested on: NCI/ADR-RES ovarian
SK-MEL-28 melanoma = tested on: SK-MEL-28 melanoma
UACC-62 melanoma = tested on: UACC-62 melanoma
LOX IMVI melanoma = tested on: LOX IMVI melanoma
HOP-62 NSCLC = tested on: HOP-62 NSCLC
HOP-92 NSCLC = tested on: HOP-92 NSCLC
UACC-257 melanoma = tested on: UACC-257 melanoma
RXF 393 renal = tested on: RXF 393 renal
SW-620 colon = tested on: SW-620 colon
K-562 leukemia = tested on: K-562 leukemia
SR leukemia = tested on: SR leukemia
T-47D breast = tested on: T-47D breast
SF-539 CNS = tested on: SF-539 CNS
SK-MEL-2 melanoma = tested on: SK-MEL-2 melanoma
PC-3 prostate = tested on: PC-3 prostate
NCI-H522 lung = tested on: NCI-H522 lung
HCT-116 colon = tested on: HCT-116 colon
MCF7 breast = tested on: MCF7 breast
A549 NSCLC = tested on: A549 NSCLC
CAKI-1 renal = tested on: CAKI-1 renal
CCRF-CEM leukemia = tested on: CCRF-CEM leukemia
OVCAR-5 ovarian = tested on: OVCAR-5 ovarian
SK-MEL-5 melanoma = tested on: SK-MEL-5 melanoma
A498 renal = tested on: A498 renal
MOLT-4 leukemia = tested on: MOLT-4 leukemia
TK-10 renal = tested on: TK-10 renal
SF-268 CNS = tested on: SF-268 CNS

CCN(CC)S(=O)(=O)c1ccc(-c2nc(C(Cl)Cl)nc3cc(-c4ccc(F)cc4)nn23)cc1
4.15 µM: TGI (HCC-2998 colon)
6.65 µM: TGI (HL-60(TB) leukemia)
3.07 µM: TGI (NCI-H460 lung)
3.57 µM: TGI (ACHN renal)
4.7 µM: TGI (A498 renal)
6.16 µM: TGI (COLO 205 colon)
10.1 µM: TGI (A549 NSCLC)
6.57 µM: TGI (EKVX NSCLC)
2.87 µM: TGI (OVCAR-3 ovarian)
7.27 µM: TGI (MDA-MB-231 breast)
4.77 µM: TGI (HT29 colon)
5.47 µM: TGI (HOP-92 NSCLC)
10.8 µM: TGI (SK-MEL-28 melanoma)
20.6 µM: TGI (NCI-H23 lung)
> 100 µM: TGI (MDA-MB-435) | TGI (IGROV1 ovarian) | TGI (786-0 renal) | TGI (SNB-75 CNS) | TGI (HCT-15 colon) | TGI (SNB-19 CNS) | TGI (NCI-H226 lung) | TGI (SK-OV-3 ovarian) | TGI (OVCAR-4 ovarian) | TGI (BT-549 breast) | TGI (MALME-3M melanoma) | TGI (SN12C renal) | TGI (OVCAR-8 ovarian) | TGI (NCI/ADR-RES ovarian) | TGI (UACC-62 melanoma) | TGI (LOX IMVI melanoma) | TGI (HOP-62 NSCLC) | TGI (UACC-257 melanoma) | TGI (SW-620 colon) | TGI (K-562 leukemia) | TGI (SR leukemia) | TGI (T-47D breast) | TGI (SK-MEL-2 melanoma) | TGI (NCI-H522 lung) | TGI (HCT-116 colon) | TGI (MCF7 breast) | TGI (CCRF-CEM leukemia) | TGI (OVCAR-5 ovarian) | TGI (SK-MEL-5 melanoma) | TGI (MOLT-4 leukemia) | TGI (SF-268 CNS)
12.8 µM: TGI (SF-295 CNS)
18.6 µM: TGI (PC-3 prostate)
inactive: GI50 (HCC-2998 colon) 1.89 µM | GI50 (MDA-MB-231 breast) 2.01 µM | GI50 (MDA-MB-435) 3.02 µM | GI50 (U251 CNS) 2.21 µM | GI50 (IGROV1 ovarian) 3.38 µM | GI50 (786-0 renal) 5.37 µM | GI50 (SNB-75 CNS) 11.7 µM | GI50 (RPMI-8226 leukemia) 0.733 µM | GI50 (HCT-15 colon) 1.32 µM | GI50 (COLO 205 colon) 2.02 µM | GI50 (UO-31 renal) 2.27 µM | GI50 (ACHN renal) 1.16 µM | GI50 (SNB-19 CNS) 3.7 µM | GI50 (NCI-H226 lung) 3.77 µM | GI50 (OVCAR-3 ovarian) 1.15 µM | GI50 (SK-OV-3 ovarian) 4.09 µM | GI50 (HL-60(TB) leukemia) 1.58 µM | GI50 (DU-145 prostate) 1.34 µM | GI50 (OVCAR-4 ovarian) 3.71 µM | GI50 (BT-549 breast) 18.5 µM | GI50 (NCI-H460 lung) 0.923 µM | GI50 (EKVX NSCLC) 2.28 µM | GI50 (HT29 colon) 1.55 µM | GI50 (MALME-3M melanoma) > 100 µM | GI50 (SF-295 CNS) 2.29 µM | GI50 (SN12C renal) 15.7 µM | GI50 (KM12 colon) 1.89 µM | GI50 (NCI-H23 lung) 2.49 µM | GI50 (HS 578T breast) 3.56 µM | GI50 (OVCAR-8 ovarian) 3.94 µM | GI50 (NCI/ADR-RES ovarian) 2.24 µM | GI50 (SK-MEL-28 melanoma) 2.73 µM | GI50 (UACC-62 melanoma) 4.03 µM | GI50 (LOX IMVI melanoma) 6.37 µM | GI50 (HOP-62 NSCLC) 3.21 µM | GI50 (HOP-92 NSCLC) 2 µM | GI50 (UACC-257 melanoma) 5.51 µM | GI50 (RXF 393 renal) 1.54 µM | GI50 (SW-620 colon) 1.41 µM | GI50 (K-562 leukemia) 1.83 µM | GI50 (SR leukemia) 2.69 µM | GI50 (T-47D breast) 2.94 µM | GI50 (SF-539 CNS) 2.24 µM | GI50 (SK-MEL-2 melanoma) > 100 µM | GI50 (PC-3 prostate) 2.61 µM | GI50 (NCI-H522 lung) > 100 µM | GI50 (HCT-116 colon) 1.73 µM | GI50 (MCF7 breast) 2.66 µM | GI50 (A549 NSCLC) 2.52 µM | GI50 (CAKI-1 renal) 2.38 µM | GI50 (CCRF-CEM leukemia) > 100 µM | GI50 (OVCAR-5 ovarian) 3.04 µM | GI50 (SK-MEL-5 melanoma) > 100 µM | GI50 (A498 renal) 1.33 µM | GI50 (MOLT-4 leukemia) 8.19 µM | GI50 (TK-10 renal) 2.99 µM | GI50 (SF-268 CNS) 5.14 µM
8.99 µM: TGI (UO-31 renal)
13.3 µM: TGI (CAKI-1 renal)
8.72 µM: TGI (TK-10 renal)
3.79 µM: TGI (RPMI-8226 leukemia)
93.2 µM: TGI (HS 578T breast)
8.88 µM: TGI (SF-539 CNS)
14.4 µM: TGI (U251 CNS)
3.41 µM: TGI (RXF 393 renal)
9.43 µM: TGI (KM12 colon)
2.98 µM: TGI (DU-145 prostate)
